Assay results as given in ChEMBL document CHEMBL5303766, “Data for DCP probe FHT-2344” (2022).

Assays:
[1] = biological target: Maternal embryonic leucine zipper kinase (Homo sapiens) (UniProt Q14680); experiment: MELK SGC Tm panel (DSF); settings: for ΔTm: Compound concentration 10.0 uM
[2] = biological target: T1, Transcription intermediary factor 1-alpha (Homo sapiens) (UniProt O15164); experiment: TIF1 SGC Tm panel (DSF); settings: for ΔTm: Compound concentration 10.0 uM
T1 sequence (whole entry): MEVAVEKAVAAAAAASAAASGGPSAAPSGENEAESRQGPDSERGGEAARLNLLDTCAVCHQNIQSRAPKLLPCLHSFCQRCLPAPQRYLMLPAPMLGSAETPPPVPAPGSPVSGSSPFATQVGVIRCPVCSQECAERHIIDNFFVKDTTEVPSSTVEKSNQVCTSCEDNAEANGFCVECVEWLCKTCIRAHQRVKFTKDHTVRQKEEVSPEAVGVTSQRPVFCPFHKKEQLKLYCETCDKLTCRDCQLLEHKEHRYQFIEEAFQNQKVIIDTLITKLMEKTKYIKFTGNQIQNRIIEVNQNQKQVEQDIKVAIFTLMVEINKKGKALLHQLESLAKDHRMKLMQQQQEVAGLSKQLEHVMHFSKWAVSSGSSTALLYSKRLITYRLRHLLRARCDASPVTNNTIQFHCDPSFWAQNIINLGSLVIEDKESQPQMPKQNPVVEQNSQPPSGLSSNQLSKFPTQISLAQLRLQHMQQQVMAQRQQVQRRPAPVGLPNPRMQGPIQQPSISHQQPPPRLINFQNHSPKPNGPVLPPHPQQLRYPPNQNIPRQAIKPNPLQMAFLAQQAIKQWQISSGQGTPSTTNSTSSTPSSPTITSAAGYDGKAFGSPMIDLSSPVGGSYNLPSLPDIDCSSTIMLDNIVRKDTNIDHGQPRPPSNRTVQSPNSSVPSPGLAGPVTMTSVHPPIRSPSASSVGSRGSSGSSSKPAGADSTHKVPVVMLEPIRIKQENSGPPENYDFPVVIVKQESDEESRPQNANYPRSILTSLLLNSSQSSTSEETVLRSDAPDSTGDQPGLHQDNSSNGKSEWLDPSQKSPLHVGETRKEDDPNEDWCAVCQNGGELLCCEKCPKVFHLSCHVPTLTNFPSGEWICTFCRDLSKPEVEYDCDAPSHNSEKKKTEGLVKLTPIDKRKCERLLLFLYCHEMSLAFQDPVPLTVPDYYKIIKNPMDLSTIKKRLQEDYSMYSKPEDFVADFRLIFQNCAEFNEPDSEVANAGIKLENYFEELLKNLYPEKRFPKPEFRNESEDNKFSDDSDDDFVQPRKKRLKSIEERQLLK

[3] = biological target: Transcription initiation factor TFIID subunit 1 (Homo sapiens) (UniProt P21675); experiment: TAF1 SGC Tm panel (DSF); settings: for ΔTm: Compound concentration 10.0 uM
Sequence of Transcription initiation factor TFIID subunit 1 (Homo sapiens) (P21675 whole entry): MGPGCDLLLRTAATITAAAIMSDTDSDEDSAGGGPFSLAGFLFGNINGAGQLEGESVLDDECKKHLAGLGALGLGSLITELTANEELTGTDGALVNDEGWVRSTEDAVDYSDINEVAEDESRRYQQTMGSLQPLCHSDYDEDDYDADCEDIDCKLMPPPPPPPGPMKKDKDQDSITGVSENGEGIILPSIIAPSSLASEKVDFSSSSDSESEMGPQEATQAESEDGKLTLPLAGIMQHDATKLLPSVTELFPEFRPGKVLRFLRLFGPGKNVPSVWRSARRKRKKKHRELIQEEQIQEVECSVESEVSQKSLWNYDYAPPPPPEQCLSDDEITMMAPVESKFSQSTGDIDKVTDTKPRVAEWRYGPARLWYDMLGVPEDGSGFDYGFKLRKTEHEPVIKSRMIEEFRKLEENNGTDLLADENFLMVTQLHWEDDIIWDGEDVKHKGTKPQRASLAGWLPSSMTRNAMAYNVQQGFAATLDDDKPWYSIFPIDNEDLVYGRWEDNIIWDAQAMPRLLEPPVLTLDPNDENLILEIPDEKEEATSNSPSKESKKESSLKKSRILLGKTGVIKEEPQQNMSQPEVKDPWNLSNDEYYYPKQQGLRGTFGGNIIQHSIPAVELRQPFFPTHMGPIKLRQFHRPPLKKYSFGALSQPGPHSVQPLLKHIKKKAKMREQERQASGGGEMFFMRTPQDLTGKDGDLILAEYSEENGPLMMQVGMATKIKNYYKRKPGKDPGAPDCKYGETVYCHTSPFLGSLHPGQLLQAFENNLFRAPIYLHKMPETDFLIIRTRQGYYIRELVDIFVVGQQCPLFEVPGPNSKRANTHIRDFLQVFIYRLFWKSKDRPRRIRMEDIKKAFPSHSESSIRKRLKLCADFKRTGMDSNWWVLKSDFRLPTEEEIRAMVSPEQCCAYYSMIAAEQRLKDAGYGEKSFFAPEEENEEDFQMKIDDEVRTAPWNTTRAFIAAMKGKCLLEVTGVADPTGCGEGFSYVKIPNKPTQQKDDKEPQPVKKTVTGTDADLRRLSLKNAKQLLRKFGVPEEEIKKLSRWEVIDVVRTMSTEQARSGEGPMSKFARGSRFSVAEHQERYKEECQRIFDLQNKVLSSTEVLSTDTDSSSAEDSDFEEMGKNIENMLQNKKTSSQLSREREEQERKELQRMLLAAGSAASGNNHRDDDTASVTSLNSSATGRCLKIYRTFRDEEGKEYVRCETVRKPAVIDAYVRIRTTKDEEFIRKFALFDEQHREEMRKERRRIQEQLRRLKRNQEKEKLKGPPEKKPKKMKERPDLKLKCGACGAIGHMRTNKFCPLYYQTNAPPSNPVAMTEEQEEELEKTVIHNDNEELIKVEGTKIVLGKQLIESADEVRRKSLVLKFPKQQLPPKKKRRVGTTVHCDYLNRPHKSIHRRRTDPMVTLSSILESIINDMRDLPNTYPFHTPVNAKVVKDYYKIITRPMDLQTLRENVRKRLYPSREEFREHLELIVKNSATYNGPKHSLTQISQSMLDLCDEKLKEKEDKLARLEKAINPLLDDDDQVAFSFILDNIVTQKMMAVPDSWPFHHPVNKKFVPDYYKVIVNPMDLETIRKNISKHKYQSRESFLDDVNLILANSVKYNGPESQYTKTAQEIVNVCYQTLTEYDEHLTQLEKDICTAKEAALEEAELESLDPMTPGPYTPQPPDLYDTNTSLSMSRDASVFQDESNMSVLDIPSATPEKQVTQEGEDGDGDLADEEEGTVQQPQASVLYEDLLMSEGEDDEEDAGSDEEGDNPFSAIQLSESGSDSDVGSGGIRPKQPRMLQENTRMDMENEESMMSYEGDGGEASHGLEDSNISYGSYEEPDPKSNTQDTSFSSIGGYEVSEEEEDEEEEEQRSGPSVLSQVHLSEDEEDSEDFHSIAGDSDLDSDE

[4] = biological target: Ephrin type-A receptor 4 (Homo sapiens) (UniProt P54764); experiment: EPHA4 SGC Tm panel (DSF); settings: for ΔTm: Compound concentration 10.0 uM
[5] = biological target: T2, Ribosyldihydronicotinamide dehydrogenase [quinone] (Homo sapiens) (UniProt P16083); experiment: NQO2 SGC Tm panel (DSF); settings: for ΔTm: Compound concentration 10.0 uM
T2 sequence (whole entry): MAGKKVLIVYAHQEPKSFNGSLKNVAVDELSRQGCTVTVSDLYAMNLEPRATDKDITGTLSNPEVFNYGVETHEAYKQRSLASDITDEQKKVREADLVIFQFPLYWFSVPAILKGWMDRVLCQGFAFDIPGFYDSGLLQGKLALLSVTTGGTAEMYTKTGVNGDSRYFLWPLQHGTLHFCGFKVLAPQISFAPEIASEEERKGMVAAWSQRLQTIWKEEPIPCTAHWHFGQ

[6] = biological target: Mitogen-activated protein kinase 10 (Homo sapiens) (UniProt P53779); experiment: MAPK10 SGC Tm panel (DSF); settings: for ΔTm: Compound concentration 10.0 uM
Sequence of Mitogen-activated protein kinase 10 (Homo sapiens) (P53779 whole entry): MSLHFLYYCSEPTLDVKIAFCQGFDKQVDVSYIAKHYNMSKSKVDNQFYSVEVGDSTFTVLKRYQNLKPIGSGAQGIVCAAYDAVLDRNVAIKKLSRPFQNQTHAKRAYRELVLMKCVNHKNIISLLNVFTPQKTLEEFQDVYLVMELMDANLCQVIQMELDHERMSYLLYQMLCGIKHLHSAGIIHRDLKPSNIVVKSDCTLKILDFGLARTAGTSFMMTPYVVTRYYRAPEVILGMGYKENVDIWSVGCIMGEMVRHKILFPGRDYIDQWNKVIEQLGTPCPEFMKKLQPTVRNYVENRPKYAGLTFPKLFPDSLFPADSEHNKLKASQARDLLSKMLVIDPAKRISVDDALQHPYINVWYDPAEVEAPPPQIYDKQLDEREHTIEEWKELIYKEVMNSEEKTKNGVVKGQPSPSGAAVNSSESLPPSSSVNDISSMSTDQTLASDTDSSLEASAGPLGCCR

[7] = biological target: SRSF protein kinase 3 (Homo sapiens) (UniProt Q9UPE1); experiment: MSSK1 SGC Tm panel (DSF); settings: for ΔTm: Compound concentration 10.0 uM
Sequence of SRSF protein kinase 3 (Homo sapiens) (Q9UPE1 whole entry): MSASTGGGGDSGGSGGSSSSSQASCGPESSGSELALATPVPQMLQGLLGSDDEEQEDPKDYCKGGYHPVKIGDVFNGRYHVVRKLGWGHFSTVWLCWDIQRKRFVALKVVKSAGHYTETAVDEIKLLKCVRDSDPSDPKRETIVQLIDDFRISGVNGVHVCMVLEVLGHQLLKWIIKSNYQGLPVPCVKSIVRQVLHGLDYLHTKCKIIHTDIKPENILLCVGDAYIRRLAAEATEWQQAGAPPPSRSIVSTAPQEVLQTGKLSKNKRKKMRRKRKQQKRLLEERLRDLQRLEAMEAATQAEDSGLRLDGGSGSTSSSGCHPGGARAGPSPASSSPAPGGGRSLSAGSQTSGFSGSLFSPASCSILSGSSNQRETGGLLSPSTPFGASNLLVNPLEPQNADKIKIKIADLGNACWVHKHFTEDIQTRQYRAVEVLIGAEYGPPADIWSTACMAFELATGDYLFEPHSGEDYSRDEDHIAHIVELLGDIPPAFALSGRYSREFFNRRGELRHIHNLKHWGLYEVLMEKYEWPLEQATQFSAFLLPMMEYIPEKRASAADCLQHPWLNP

[8] = biological target: T3, Dual specificity tyrosine-phosphorylation-regulated kinase 2 (Homo sapiens) (UniProt Q92630); experiment: DYRK2 SGC Tm panel (DSF); settings: for ΔTm: Compound concentration 10.0 uM
T3 sequence (whole entry): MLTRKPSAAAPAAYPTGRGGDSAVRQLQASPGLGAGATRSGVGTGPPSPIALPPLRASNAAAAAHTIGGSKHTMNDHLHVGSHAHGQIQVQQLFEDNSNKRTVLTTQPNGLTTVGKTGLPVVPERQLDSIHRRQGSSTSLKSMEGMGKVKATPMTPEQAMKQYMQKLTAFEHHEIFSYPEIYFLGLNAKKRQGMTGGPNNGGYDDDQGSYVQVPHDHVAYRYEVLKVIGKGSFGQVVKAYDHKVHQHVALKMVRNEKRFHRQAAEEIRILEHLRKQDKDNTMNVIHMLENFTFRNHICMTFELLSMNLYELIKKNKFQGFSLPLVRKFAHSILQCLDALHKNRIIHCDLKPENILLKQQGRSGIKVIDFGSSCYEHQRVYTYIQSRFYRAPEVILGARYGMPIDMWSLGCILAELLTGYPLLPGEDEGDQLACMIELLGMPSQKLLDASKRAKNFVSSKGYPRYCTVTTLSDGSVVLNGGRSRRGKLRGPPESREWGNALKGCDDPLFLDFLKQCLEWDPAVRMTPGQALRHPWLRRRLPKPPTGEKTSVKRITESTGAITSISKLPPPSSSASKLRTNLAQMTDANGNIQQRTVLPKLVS

[9] = biological target: Sigma non-opioid intracellular receptor 1 (Homo sapiens, UniProt Q99720); settings: Compound concentration 10.0 uM
Sequence of Sigma non-opioid intracellular receptor 1 (Q99720 whole entry): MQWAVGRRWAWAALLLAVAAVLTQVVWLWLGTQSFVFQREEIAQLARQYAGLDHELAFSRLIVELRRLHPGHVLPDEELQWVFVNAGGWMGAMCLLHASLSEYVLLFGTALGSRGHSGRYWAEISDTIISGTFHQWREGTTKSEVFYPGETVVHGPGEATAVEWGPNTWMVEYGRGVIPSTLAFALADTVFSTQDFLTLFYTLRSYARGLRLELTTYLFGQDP

[10] = biological target: T4, Serine/threonine-protein kinase 17B (Homo sapiens) (UniProt O94768); experiment: STK17B SGC Tm panel (DSF); settings: for ΔTm: Compound concentration 10.0 uM
T4 sequence (whole entry): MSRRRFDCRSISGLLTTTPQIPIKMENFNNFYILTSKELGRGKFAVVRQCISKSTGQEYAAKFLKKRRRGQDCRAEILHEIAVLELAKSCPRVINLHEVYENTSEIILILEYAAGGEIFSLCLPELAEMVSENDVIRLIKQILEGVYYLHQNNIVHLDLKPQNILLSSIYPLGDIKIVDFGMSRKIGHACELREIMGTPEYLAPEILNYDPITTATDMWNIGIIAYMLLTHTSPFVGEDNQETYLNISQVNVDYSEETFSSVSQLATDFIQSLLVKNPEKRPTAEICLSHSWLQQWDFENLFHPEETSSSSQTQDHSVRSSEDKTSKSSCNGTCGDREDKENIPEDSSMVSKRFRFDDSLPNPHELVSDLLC

[11] = biological target: 5-hydroxytryptamine receptor 5A (Homo sapiens) (UniProt P47898); settings: Compound concentration 10.0 uM
Sequence of 5-hydroxytryptamine receptor 5A (Homo sapiens) (P47898 whole entry): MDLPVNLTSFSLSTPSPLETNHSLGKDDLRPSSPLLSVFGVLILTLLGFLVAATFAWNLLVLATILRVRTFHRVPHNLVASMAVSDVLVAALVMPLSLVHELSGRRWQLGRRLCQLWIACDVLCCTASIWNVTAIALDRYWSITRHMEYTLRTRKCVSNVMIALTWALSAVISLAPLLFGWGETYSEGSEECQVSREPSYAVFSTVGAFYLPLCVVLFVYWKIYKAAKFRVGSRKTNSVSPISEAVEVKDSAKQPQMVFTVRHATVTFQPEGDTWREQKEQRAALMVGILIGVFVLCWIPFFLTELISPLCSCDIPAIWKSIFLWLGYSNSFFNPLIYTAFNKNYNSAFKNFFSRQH

[12] = biological target: Tyrosine-protein kinase Fes/Fps (Homo sapiens) (UniProt P07332); experiment: FES SGC Tm panel (DSF); settings: for ΔTm: Compound concentration 10.0 uM
Sequence of Tyrosine-protein kinase Fes/Fps (Homo sapiens) (P07332 whole entry): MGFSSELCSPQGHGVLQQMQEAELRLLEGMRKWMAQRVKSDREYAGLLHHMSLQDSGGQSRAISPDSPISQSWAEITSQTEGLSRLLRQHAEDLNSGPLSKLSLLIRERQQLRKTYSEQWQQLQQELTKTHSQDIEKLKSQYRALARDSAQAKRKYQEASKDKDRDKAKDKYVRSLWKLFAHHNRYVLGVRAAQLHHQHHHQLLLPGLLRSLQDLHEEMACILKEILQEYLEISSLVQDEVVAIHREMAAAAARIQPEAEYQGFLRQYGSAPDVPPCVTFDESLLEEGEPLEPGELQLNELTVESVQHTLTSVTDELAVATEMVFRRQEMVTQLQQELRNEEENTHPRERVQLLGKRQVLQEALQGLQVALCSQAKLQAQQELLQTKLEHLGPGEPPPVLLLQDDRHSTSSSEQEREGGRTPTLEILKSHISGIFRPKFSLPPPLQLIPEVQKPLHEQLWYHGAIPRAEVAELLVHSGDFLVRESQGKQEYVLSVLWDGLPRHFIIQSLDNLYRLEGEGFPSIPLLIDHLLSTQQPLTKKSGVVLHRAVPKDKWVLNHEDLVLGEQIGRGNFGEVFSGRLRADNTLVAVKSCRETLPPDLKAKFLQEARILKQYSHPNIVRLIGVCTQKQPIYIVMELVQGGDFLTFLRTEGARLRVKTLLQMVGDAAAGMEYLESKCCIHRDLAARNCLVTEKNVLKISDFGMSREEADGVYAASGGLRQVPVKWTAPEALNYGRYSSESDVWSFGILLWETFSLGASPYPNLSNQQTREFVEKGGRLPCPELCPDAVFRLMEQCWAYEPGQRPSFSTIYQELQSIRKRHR

[13] = biological target: Alpha-2B adrenergic receptor (Homo sapiens) (UniProt P18089); settings: Compound concentration 10.0 uM

Sequence of Maternal embryonic leucine zipper kinase (Homo sapiens) (Q14680 whole entry, looked up): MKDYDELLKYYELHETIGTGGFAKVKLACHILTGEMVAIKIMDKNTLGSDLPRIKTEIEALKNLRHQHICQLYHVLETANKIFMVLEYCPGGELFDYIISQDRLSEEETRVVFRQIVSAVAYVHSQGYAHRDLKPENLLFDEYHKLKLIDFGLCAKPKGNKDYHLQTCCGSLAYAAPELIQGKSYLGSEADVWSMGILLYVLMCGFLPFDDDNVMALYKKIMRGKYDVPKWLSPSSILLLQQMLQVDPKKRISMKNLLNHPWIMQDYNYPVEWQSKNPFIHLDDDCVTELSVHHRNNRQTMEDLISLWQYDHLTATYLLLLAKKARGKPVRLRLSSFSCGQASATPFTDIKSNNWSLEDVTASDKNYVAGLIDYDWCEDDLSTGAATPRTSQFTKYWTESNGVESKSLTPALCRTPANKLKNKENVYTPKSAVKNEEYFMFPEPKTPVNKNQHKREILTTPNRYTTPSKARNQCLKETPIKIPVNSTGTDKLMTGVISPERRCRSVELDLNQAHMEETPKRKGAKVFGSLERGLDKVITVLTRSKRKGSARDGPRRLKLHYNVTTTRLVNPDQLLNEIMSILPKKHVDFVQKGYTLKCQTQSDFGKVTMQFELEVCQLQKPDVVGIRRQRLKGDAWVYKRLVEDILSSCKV

| delta Tm Staurosporine positive control [1] | ΔTm [1] | delta Tm Staurosporine positive control [2] | ΔTm [2] | delta Tm Staurosporine positive control [3] | ΔTm [3] | delta Tm Staurosporine positive control [4] | ΔTm [4] | delta Tm Staurosporine positive control [5] | ΔTm [5] | delta Tm Staurosporine positive control [6] | ΔTm [6] | delta Tm Staurosporine positive control [7] | ΔTm [7] | delta Tm Staurosporine positive control [8] | ΔTm [8] | inhibition [9] [%] | delta Tm Staurosporine positive control [10] | ΔTm [10] | inhibition [11] [%] | SMILES | other results |
| --- | --- | --- | --- | --- | --- | --- | --- | --- | --- | --- | --- | --- | --- | --- | --- | --- | --- | --- | --- | --- | --- |
| 14 | -0.053 | 2.51 | 1.43 | 0.177 | 0.0215 | 6.89 | 1.06 | -2.91 | -0.772 | 7.41 | 0.595 | 3.67 | 0.376 | 6.46 | 1.45 | 1.62 | 10 | -0.114 | 11.2 | COC[C@H](NC(=O)c1ccn(S(C)(=O)=O)c1)C(=O)Nc1nc(-c2cccc(-c3ccn(C)n3)c2)cs1 | delta Tm Staurosporine positive control [12]: 8.7; ΔTm [12]: 0.123; inhibition [13]: 6.88% |
| 14 | 0.116 | 2.51 | 1.18 | 0.177 | -0.179 | 6.89 | 1.22 | -2.91 | -0.586 | 7.41 | 1.8 | 3.67 | 0.0986 | 6.46 | 1.82 | 83.2 | 10 | -12.2 | 13.9 | C[C@H](NC(=O)c1cn(C2(C#N)CC2)cn1)C(=O)Nc1nc(-c2cccc(-c3ccn(C)n3)c2)cs1 | delta Tm Staurosporine positive control [12]: 8.7; ΔTm [12]: 0.0445; inhibition [13]: 14.6% |
